This note sets out measurements from PubChem BioAssay (NCI).

What all share (assay): NCI-60 cell line screen, 48 h
For assay [1], the system named is SK-MEL-28 melanoma.
Assay [2] concerns NCI/ADR-RES ovarian.
The test system of assay [3] is NCI-H226 lung.
Assay [4] relates to HL-60(TB) leukemia.
Assay [5] deals with M14 melanoma.
For assay [6], the system named is OVCAR-4 ovarian.
The test system of assay [7] is SF-539 CNS.
Assay [8] deals with HOP-92 NSCLC.
The subject of assay [9] is 786-0 renal.
For assay [10], the system named is OVCAR-3 ovarian.

Values joined by “and” are separate entries in the source; they are usually repeats but may differ in a detail not shown here. Equal values may be shown once.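 Tested at 5 concentrations; 48 h exposure; 96-well plates; endpoints linearly interpolated, else capped at highest concentration. GI50 marks 50% less growth. The concentration for full growth arrest is given as TGI.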 Some results are limits rather than exact numbers.

Consider `C=CCNc1cccc2c1C(=O)c1ccccc1C2(O)CC=C` (stereo not drawn), for which the GI50 is 27 µM in assay [1]; 22.4 µM in assay [2]; 20.2 µM in [3]; 47.2 µM in [4]; 19 µM in [5]; 26.2 µM in [6]. The GI50 was 19.5 µM in assay [7], 27.4 µM in assay [8] and 19.8 µM in [9]. The TGI in assay [1] is 93.3 µM; in assay [2], 58.4 µM; in assay [3], 49.2 µM; in assay [4], over 100 µM; in assay [5], 41 µM; in assay [6], over 100 µM. Besides, the results for the TGI in assay [7], in assay [8] and in assay [9] were 38.4 µM, 55.4 µM and 36.9 µM, respectively.

Turning to `CS(=O)(=O)CS(=O)CS(=O)CS(=O)CC(NC(=O)CCC(N)C(=O)O)C(=O)O` (stereo not drawn), the TGI in [1], in [2], in [4], in assay [5], in [6] and in [10] was over 100 µM each time. For the same molecule, the TGI in assay [7], in [8] and in assay [9] was over 100 µM in each case.

For `Clc1ccc(Nc2nc3ccccc3c3occc23)cc1`, the GI50 is 6.39 µM in assay [1]; 8.7 µM in assay [2]; 24.4 µM in [4]; 8.46 µM in assay [5]; 8.7 µM in assay [6]; 5.92 µM in assay [10]. Further, the GI50 in [7] is 9.62 µM; in [8], 6.53 µM; in assay [9] it was 8.33 µM. Besides, the TGI is 14.4 µM in assay [1]; 15.6 µM in [2]; over 50 µM in assay [4]; 16.9 µM in assay [5]; 19.8 µM in [6]; 12.1 µM in assay [10]. Besides, the TGI in assay [7] came out at 17.5 µM; in assay [8], 13.2 µM; in assay [9], 15.1 µM.

As for `N#Cc1ccc2oc3ccc(C#N)cc3c(=O)c2c1`, the TGI in assay [1] is 36.7 µM; in [2] it was over 100 µM; in assay [3], 77.5 µM; in assay [4] it was 38.5 µM; in [5], over 100 µM; in [6], 38.3 µM. Further, the figures for the TGI in assay [7], in assay [8] and in assay [9] were 43.6 µM, over 100 µM and 68 µM, respectively.

For `C=C(C(=O)OC)[C@@H]1C[C@@H](O)[C@]2(C)CC/C=C(\C)CCC[C@H](C)[C@H](O)C1O2`, the GI50 is over 100 µM in [1]; 83.7 µM in assay [2]; 86.7 µM in [3]; 44 µM in [5]; 78.8 µM in assay [6]; 31.3 µM in assay [10]. The GI50 in assay [7] is over 100 µM; in assay [8], 3.71 µM; in assay [9], over 100 µM. In addition, the TGI in assay [1] is over 100 µM; in assay [2] it was over 100 µM; in [3], over 100 µM; in assay [5], over 100 µM; in [6], over 100 µM; in assay [10] it was 92.7 µM. In addition, the TGI in assay [7] is over 100 µM; in [8], 45.4 µM; in assay [9], over 100 µM.

`COc1ccc(Cn2cc(Cn3c(=O)c(-c4nc5ccccc5[nH]4)cc4ccccc43)nn2)c(OC)c1OC`: the GI50 in [1] is 0.539 µM and 0.912 µM; in assay [2], 1.1 µM and 1.83 µM; in assay [3], 0.338 µM; in assay [4] it was 0.114 µM and 0.306 µM; in [6], 1.31 µM; in assay [10] it was 0.165 µM and 0.292 µM. The GI50 was 0.144 µM and 0.206 µM in [7]; 0.48 µM and 0.39 µM in [8]; 0.457 µM in [9]. In addition, the TGI in [1] is 1.66 µM and 4.61 µM; in [2], 3.96 µM and 15.8 µM; in assay [3], over 100 µM; in assay [4], 50 µM and > 100 µM; in [6], over 100 µM; in assay [10], 0.633 µM and 1.19 µM. The TGI was 0.664 µM and 0.872 µM in [7]; 1.92 µM and 9.69 µM in assay [8]; 2.86 µM in [9].

Take `N#Cc1nc(Nc2ccc([N+](=O)[O-])cc2)sc1N`: the TGI in [1] is over 74.3 µM; in assay [3], over 86.3 µM; in assay [4], over 29.8 µM; in assay [5], 66.8 µM; in assay [6], over 100 µM; in assay [10], over 69.4 µM. Further, the TGI in [7] is 18.7 µM; in assay [8], 75 µM; in [9], over 100 µM.

Consider `COc1ccc(-c2nn(-c3cccc(NC(=O)Nc4cccc(C(F)(F)F)c4)c3)cc2-c2ccncc2)cc1Cl`, for which the GI50 is 2.57 µM in assay [1]; 2.29 µM in [2]; 2.14 µM in assay [3]; 1.95 µM in assay [4]; 1.63 µM in assay [5]; 1.97 µM in [7]. In addition, the figures for the GI50 in assay [8] and in assay [9] were 0.229 µM and 2.28 µM, respectively. Moreover, the TGI in [1] was 22.6 µM; in assay [2] it was over 100 µM; in assay [3], 9.43 µM; in [4], 6.26 µM; in assay [5] it was 4.62 µM; in assay [7], 6.45 µM. Also, the TGI came out at 3 µM in assay [8] and 10.1 µM in assay [9].

With `CN1c2ccccc2C(C)(C)C12CC(c1ccc(Cl)c(S(=O)(=O)N3CCCC3)c1)=NO2` (stereo not drawn), the GI50 in assay [1], in [2], in assay [3], in [4], in [5] and in assay [6] was over 100 µM in each case. For the same molecule, the GI50 in [10], in assay [7] and in [9] was over 100 µM throughout. Also, the TGI in [1], in assay [2], in assay [3], in assay [4], in [5] and in assay [6] was over 100 µM each time. Besides, the TGI in assay [10], in assay [7] and in [9] was over 100 µM in each case.
